Here are results for eleven compounds from patent US9890185B2, “Urea derivatives useful as kinase inhibitors” (Respivert Limited, priority 2013, dated 2018).

Broadly, the inhibition is the share of the control response that was lost under treatment. For orientation: IC50 means the midpoint of a concentration-inhibition curve.

Some results are limits rather than exact numbers.

For experiment [1], the system named is PBMCs. In words: Cell mitosis assay in PBMCs (assay g). In kind it is cell-based. Particulars: Homo sapiens, PBMC, test compound 5 μg/mL. Summed up:
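Human PBMCs from healthy donors, stimulated with 2% PHA for 48 hr, then exposed to test compounds for 20 hr, with demecolcine (0.1 μg/mL) added 2 hr before harvest. Cells fixed/permeabilised, stained for phospho-histone 3 and propidium iodide, and read by flow cytometry gated on lymphocytes. % mitosis inhibition vs 0.5% DMSO vehicle.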

In experiment [2] the test system is PBMCs. Put plainly: IL-2 release in CD3/CD28 stimulated PBMC cells (assay c). The following applies: Homo sapiens, read-out: IC50 Values for Inhibition of Cytokine Release, PBMCs IL-2. In kind it is cell-based. Summed up: (§1)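 Healthy-donor PBMCs, isolated by density gradient, were plated in wells pre-coated with anti-CD3 (0.3 μg/mL) and anti-CD28 (3 μg/mL) antibodies, then exposed to compound for 3 days under normal culture conditions. IL-2 and IFN gamma in supernatants were measured by sandwich ELISA; IC50 taken from the dose-response curve.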

The target of experiment [3] is p38 MAPKα isoform (MAPK14) (Homo sapiens (Human), UniProt Q16539). Put plainly: p38 MAPKα enzyme inhibition (FRET, Z-LYTE, Method 2). In kind it is biochemical. Summed up:
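Z-LYTE FRET: p38 MAPKα (80 ng/mL for Method 1, 200 ng/mL for Method 2, pre-dilution) preincubated 2 hr RT with compound (4–0.004 μg/mL solutions), activity read via MAPKAP-K2 phosphorylation after 1 hr RT and 1 hr protease development. Coumarin/fluorescein ratio gives phosphorylation; % inhibition versus uninhibited control, IC50 from concentration-response curve.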

In the next experiment the target is Syk (Homo sapiens (Human), UniProt P43405). Put plainly: Syk enzyme inhibition (FRET, Z-LYTE). In kind it is biochemical. Summed up:
(§2)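 Fluorescence-ratio kinase assay: 2 hr compound–enzyme preincubation at RT, 1 hr reaction with ATP added as 800 μM (c-Src) or 60 μM (Syk) solution. IC50 derived from percent inhibition curves.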

Experiment [4] concerns PBMCs. Put plainly: LPS-induced IL-8 release in PBMC cells (assay b). It counts as cell-based, human. Particulars: Homo sapiens, PBMC; LPS-stimulated PBMCs; read-out: IC50 Values for Inhibition of Cytokine Release, PBMCs IL-8. An outline of the steps: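 Human PBMCs from healthy donors, isolated by density gradient, were pretreated with compound for 2 h and then stimulated with 1 ng/mL LPS (E. coli 0111:B4) for 24 h at 37° C, 5% CO2. Supernatant IL-8 and TNFα were measured by sandwich ELISA, and IC50 was taken from the dose-response curve.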

The next experiment addresses GSK 3α (Homo sapiens (Human), UniProt P49840). Put plainly: GSK 3α enzyme inhibition (FRET, Z-LYTE, Method 2). In kind it is biochemical. The following applies: read-out: IC50 Values for Enzyme Inhibition, GSK3α. Summed up:
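Phosphorylation of a dual-labelled synthetic peptide by human GSK3α is read as a coumarin/fluorescein ratio after protease development. Compound stocks run 4 to 0.004 μg/mL, and ATP stock is 40 μM.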

The target of another experiment is c-Src (Homo sapiens (Human), UniProt P12931). Put plainly: c-Src enzyme inhibition (FRET, Z-LYTE). It counts as biochemical. An outline of the steps: as §2
Chain of c-Src (P12931 whole entry, looked up): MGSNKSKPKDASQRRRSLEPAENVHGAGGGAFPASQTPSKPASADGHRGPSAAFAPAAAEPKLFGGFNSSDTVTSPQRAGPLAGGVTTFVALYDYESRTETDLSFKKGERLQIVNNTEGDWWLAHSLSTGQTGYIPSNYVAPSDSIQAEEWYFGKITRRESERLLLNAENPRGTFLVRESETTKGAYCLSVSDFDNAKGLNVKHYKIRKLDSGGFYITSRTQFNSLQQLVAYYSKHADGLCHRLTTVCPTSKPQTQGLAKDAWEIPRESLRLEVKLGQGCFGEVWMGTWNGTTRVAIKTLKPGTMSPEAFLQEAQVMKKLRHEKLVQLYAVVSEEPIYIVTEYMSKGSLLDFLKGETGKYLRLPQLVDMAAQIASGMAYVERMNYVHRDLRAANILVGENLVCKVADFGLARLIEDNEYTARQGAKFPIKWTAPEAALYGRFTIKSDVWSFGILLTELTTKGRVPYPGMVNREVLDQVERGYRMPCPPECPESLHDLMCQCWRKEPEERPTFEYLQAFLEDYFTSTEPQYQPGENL
In experiment [5] the test system is PBMCs. Put plainly: IFN gamma release in CD3/CD28 stimulated PBMC cells (assay c). In kind it is cell-based. The following applies: Homo sapiens, read-out: IC50 Values for Inhibition of Cytokine Release, PBMCs IFNγ. An outline of the steps: as §1

Chain of p38 MAPKα isoform (MAPK14) (Q16539 whole entry, canonical isoform): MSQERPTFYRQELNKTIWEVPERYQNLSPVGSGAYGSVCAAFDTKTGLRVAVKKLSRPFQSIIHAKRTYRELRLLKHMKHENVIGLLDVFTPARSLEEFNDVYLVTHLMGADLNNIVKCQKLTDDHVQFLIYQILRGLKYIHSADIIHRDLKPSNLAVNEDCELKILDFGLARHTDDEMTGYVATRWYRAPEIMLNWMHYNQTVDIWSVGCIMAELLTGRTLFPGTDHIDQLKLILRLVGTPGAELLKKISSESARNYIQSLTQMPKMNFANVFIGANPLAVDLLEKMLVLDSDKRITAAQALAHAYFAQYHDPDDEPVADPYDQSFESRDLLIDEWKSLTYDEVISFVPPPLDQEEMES
Chain of GSK 3α (P49840 whole entry): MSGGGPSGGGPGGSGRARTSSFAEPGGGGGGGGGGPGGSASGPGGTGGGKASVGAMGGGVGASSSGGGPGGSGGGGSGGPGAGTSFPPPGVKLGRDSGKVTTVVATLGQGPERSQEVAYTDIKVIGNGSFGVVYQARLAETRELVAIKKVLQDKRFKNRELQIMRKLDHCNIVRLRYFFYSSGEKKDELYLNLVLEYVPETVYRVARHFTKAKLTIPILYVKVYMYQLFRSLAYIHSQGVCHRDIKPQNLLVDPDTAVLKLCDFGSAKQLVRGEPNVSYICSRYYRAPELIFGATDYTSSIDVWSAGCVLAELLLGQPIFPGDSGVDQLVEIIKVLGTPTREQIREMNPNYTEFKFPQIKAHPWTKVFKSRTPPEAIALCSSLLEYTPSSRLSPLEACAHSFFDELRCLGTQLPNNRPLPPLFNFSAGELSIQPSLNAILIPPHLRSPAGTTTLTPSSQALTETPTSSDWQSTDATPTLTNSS

Turning to `COCCOCCOCCNC(=O)c1cc(Nc2cc(Oc3ccc(NC(=O)Nc4cc(C(C)(C)C)cc([S+](C)[O-])c4OC)c4ccccc34)ccn2)cc(OC)c1` (stereo not shown) [Example 48, 3-((4-((4-(3-(5-(tert-Butyl)-2-methoxy-3-(methylsulfinyl)phenyl)ureido)naphthalen-1-yl)oxy)pyridin-2-yl)amino)-5-methoxy-N-(2-(2-(2-methoxyethoxy)ethoxy)ethyl)benzamide], in the experiment on PBMCs [1], 5 µg/mL produced 35.6% inhibition. Moreover, the IC50 was 116 nM with PBMCs [2]; 25 nM in experiment [3]; above 1230 nM at Syk; 0.4 nM with PBMCs [4]; 2670 nM on GSK 3α; 37 nM against c-Src. Besides, in the experiment with PBMCs [5], the IC50 came out at 3.7 nM.

With `COc1c(CC(N)=O)cc(C(C)(C)C)cc1NC(=O)Nc1ccc(Oc2ccnc(Nc3cc(C#N)cc(OCCN4CCOCC4)c3)c2)c2ccccc12` [Example 49, 2-(5-(tert-Butyl)-3-(3-(4-((2-((3-cyano-5-(2-morpholinoethoxy)phenyl)amino)pyridin-4-yl)oxy)naphthalen-1-yl)ureido)-2-methoxyphenyl)acetamide], the inhibition at 5 µg/mL with PBMCs [1] amounted to 43.9%. Further, the IC50 in the experiment with PBMCs [2] was 91 nM; in experiment [3], 124 nM; against Syk, above 1340 nM; in the experiment with PBMCs [4], 0.8 nM; at GSK 3α, 4510 nM; against c-Src, 39 nM. For the same compound, the IC50 with PBMCs [5] turned out to be 5.7 nM.

Take `COc1c(NC(=O)Nc2ccc(Oc3ccnc(Nc4cc(C#N)cc(OCCN5CCOCC5)c4)c3)c3ccccc23)cc(C(C)(C)C)cc1[S+](C)[O-]` (stereo not shown) [Example 51, 1-(5-(tert-Butyl)-2-methoxy-3-(methylsulfinyl)phenyl)-3-(4-((2-((3-cyano-5-(2-morpholinoethoxy)phenyl)amino)pyridin-4-yl)oxy)naphthalen-1-yl)urea]: 5 µg/mL produced 28% inhibition with PBMCs [1]. Also, the IC50 in the experiment on PBMCs [2] is 101 nM; in experiment [3], 158 nM; against Syk, above 1340 nM; in the experiment on PBMCs [4], 1.3 nM; at GSK 3α, 8710 nM; on c-Src it was 55 nM. In addition, the IC50 with PBMCs [5] came out at 75.2 nM.

`COc1c(CNC(C)=O)cc(C(C)(C)C)cc1NC(=O)Nc1ccc(Oc2ccnc(Nc3cc(OCCN4CCOCC4)cc(C(F)(F)F)c3)c2)c2ccccc12` [Example 52] registered an inhibition at 5 µg/mL in the experiment with PBMCs [1] of 46.8%. Also, the IC50 with PBMCs [2] is 43.5 nM; in experiment [3], above 1250 nM; against Syk it was above 1250 nM; in the experiment on PBMCs [4], 2.8 nM; at GSK 3α, above 12500 nM; against c-Src, 235 nM. In addition, the IC50 in the experiment with PBMCs [5] turned out to be 5.5 nM.

The compound `COCCOCCOCCNC(=O)c1cc(Nc2cc(Oc3ccc(NC(=O)Nc4cc(C(C)(C)C)cc(CC(N)=O)c4OC)c4ccccc34)ccn2)cc(OC)c1` [Example 53, 3-((4-((4-(3-(3-(2-Amino-2-oxoethyl)-5-(tert-butyl)-2-methoxyphenyl)ureido)naphthalen-1-yl)oxy)pyridin-2-yl)amino)-5-methoxy-N-(2-(2-(2-methoxyethoxy)ethoxy)ethyl)benzamide] came in with an inhibition at 5 µg/mL with PBMCs [1] of 22.3%. The IC50 with PBMCs [2] was 52.5 nM; in experiment [3], 12 nM; at Syk it was above 1240 nM; with PBMCs [4], 1.1 nM; on GSK 3α, 1560 nM; on c-Src, 22 nM. In addition, the IC50 in the experiment with PBMCs [5] was 6 nM.

As for `COc1cc(Nc2cc(Oc3ccc(NC(=O)Nc4cc(C(C)(C)C)cc(S(C)(=O)=O)c4OC)c4ccccc34)ccn2)cc(C(=O)NCCN2CCOCC2)c1` [Example 54, 3-((4-((4-(3-(5-(tert-Butyl)-2-methoxy-3-(methylsulfonyl)phenyl)ureido)naphthalen-1-yl)oxy)pyridin-2-yl)amino)-5-methoxy-N-(2-morpholinoethyl)benzamide], in the experiment on PBMCs [1], the inhibition at 5 µg/mL was 51.9%. The half-maximal inhibitory concentration (IC50) with PBMCs [2] is 37.9 nM; in experiment [3] it was 63 nM; against Syk, 590 nM; with PBMCs [4], 1.5 nM; at GSK 3α, above 5020 nM; against c-Src it was 43 nM. In addition, the IC50 in the experiment with PBMCs [5] stood at 3.7 nM.

On to `COc1cc(Nc2cc(Oc3ccc(NC(=O)Nc4cc(C(C)(C)C)cc([S+](C)[O-])c4OC)c4ccccc34)ccn2)cc(C(N)=O)c1` (stereo not shown) [Example 55, 3-((4-((4-(3-(5-(tert-Butyl)-2-methoxy-3-(methylsulfinyl)phenyl)ureido)naphthalen-1-yl)oxy)pyridin-2-yl)amino)-5-methoxybenzamide], for which, in the experiment on PBMCs [1], the inhibition at 5 µg/mL was found to be 51.7%. The IC50 in the experiment with PBMCs [2] was 31.2 nM; in experiment [3] it was 38 nM; at Syk it was above 692 nM; with PBMCs [4], 0.6 nM; at GSK 3α it was 2480 nM; against c-Src, 37 nM. The IC50 in the experiment on PBMCs [5] was determined as 6.2 nM.

Turning to `COc1cc(Nc2cc(Oc3ccc(NC(=O)Nc4cc(C(C)(C)C)cc(CC(N)=O)c4OC)c4ccccc34)ccn2)cc(S(C)(=O)=O)c1` [Example 56, 2-(5-(tert-Butyl)-2-methoxy-3-(3-(4-((2-((3-methoxy-5-(methylsulfonyl)phenyl)amino)pyridin-4-yl)oxy)naphthalen-1-yl)ureido)phenyl)acetamide], the inhibition at 5 µg/mL in the experiment on PBMCs [1] stood at 17.6%. The half-maximal inhibitory concentration (IC50) in the experiment on PBMCs [2] is 234 nM; in experiment [3], 188 nM; at Syk, above 1430 nM; with PBMCs [4] it was 1.2 nM; on GSK 3α, 1600 nM; against c-Src, 83 nM. Further, in the experiment on PBMCs [5], the IC50 amounted to 9.5 nM.

In the experiment with PBMCs [1], `COc1cc(Nc2cc(Oc3ccc(NC(=O)Nc4cc(C(C)(C)C)cc(OCCO)c4OC)c4ccccc34)ccn2)cc(C(N)=O)c1` [Example 57, 3-((4-((4-(3-(5-(tert-Butyl)-3-(2-hydroxyethoxy)-2-methoxyphenyl)ureido)naphthalen-1-yl)oxy)pyridin-2-yl)amino)-5-methoxybenzamide] returned an inhibition at 5 µg/mL of 50.6%. The IC50 with PBMCs [2] was 92.9 nM; in experiment [3], 209 nM; against Syk, above 1500 nM; in the experiment on PBMCs [4], 1.1 nM; at GSK 3α, 3870 nM; at c-Src, 98 nM. For the same compound, the IC50 in the experiment on PBMCs [5] is 7.8 nM.

Turning to `COc1cc(Nc2cc(Oc3ccc(NC(=O)Nc4cc(C(C)(C)C)cc(P(C)(C)=O)c4OC)c4ccccc34)ccn2)cc(S(=O)(=O)N(C)C)c1` [Example 58, 3-((4-((4-(3-(5-(tert-Butyl)-3-(dimethylphosphoryl)-2-methoxyphenyl)ureido)naphthalen-1-yl)oxy)pyridin-2-yl)amino)-5-methoxy-N,N-dimethylbenzenesulfonamide], the inhibition at 5 µg/mL with PBMCs [1] worked out at 2.9%. Further, the IC50 with PBMCs [2] is 587 nM; in experiment [3], 527 nM; against Syk, above 1340 nM; with PBMCs [4] it was 1.4 nM; on GSK 3α it was 7100 nM; against c-Src, 101 nM. For the same compound, the IC50 with PBMCs [5] was found to be 3.2 nM.

The compound `COCCOCCOCCNC(=O)c1cc(Nc2cc(Oc3ccc(NC(=O)Nc4cc(C(C)(C)C)cc(C(=O)NCCN5CCOCC5)c4OC)c4ccccc34)ccn2)cc(OC)c1` [Example 59, 5-(tert-Butyl)-2-methoxy-3-(3-(4-((2-((3-methoxy-5-((2-(2-(2-methoxyethoxy)ethoxy)ethyl)carbamoyl)phenyl)amino)pyridin-4-yl)oxy)naphthalen-1-yl)ureido)-N-(2-morpholinoethyl)benzamide] displayed an inhibition at 5 µg/mL in the experiment on PBMCs [1] of 30.9%. Further, the IC50 turned out to be 55.6 nM with PBMCs [2]; 127 nM in experiment [3]; 560 nM on Syk; 1.7 nM in the experiment on PBMCs [4]; 2510 nM on GSK 3α; 43 nM at c-Src. In addition, the IC50 with PBMCs [5] was 2.9 nM.
